Laboratory results as given in PubChem BioAssay AID1963869 (Molecular Pharmacology Branch, DTP, NCI, 2024).

System: KRAS patient-derived spheroids with HUVEC/MSC, viability
Experiment: Anticancer human tumor 323965-272-R-J2-PDC patient-derived pancreatic carcinoma cell line growth inhibition [KRAS2]
Conditions: for IC50: curve of first compound; for viability, T/C: stronger effect = lower value
How it was run: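 Combination screen of spheroid viability in tumor-cell co-cultures with endothelial (HUVEC) and mesenchymal stem cell stroma. Each agent was tested in half-log dilutions, topping at clinical Cmax or at 10 microM without a known Cmax.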

[1] = second compound 0.1 µM, first compound 0.0316 µM
[2] = second compound 0.1 µM, first compound 0.1 µM
[3] = second compound 0.1 µM, first compound 0.316 µM
[4] = second compound 0.1 µM, first compound 1 µM
[5] = second compound 0.1 µM, first compound 3.16 µM
[6] = second compound 0.316 µM, first compound 0.0316 µM
[7] = second compound 0.316 µM, first compound 0.1 µM
[8] = second compound 0.316 µM, first compound 0.316 µM
[9] = second compound 0.316 µM, first compound 1 µM
[10] = second compound 0.316 µM, first compound 3.16 µM
[11] = second compound 1 µM, first compound 0.0316 µM
[12] = second compound 1 µM, first compound 0.1 µM
[13] = second compound 1 µM, first compound 0.316 µM
[14] = second compound 1 µM, first compound 1 µM
[15] = second compound 1 µM, first compound 3.16 µM
[16] = second compound 3.16 µM, first compound 0.0316 µM
[17] = second compound 3.16 µM, first compound 0.1 µM
[18] = second compound 3.16 µM, first compound 0.316 µM
[19] = second compound 3.16 µM, first compound 1 µM
[20] = second compound 3.16 µM, first compound 3.16 µM
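Note: spheroids exposed to agents for 7 days.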
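Throughout, for viability, T/C: 100% = DMSO vehicle control viability.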

SMILES | IC50 (second compound 0.1 µM) [µM] | IC50 (second compound 0.316 µM) [µM] | IC50 (second compound 1 µM) [µM] | IC50 (second compound 3.16 µM) [µM] | viability, T/C [1] [%] | viability, T/C [2] [%] | viability, T/C [3] [%] | viability, T/C [4] [%] | viability, T/C [5] [%] | viability, T/C [6] [%] | viability, T/C [7] [%] | viability, T/C [8] [%] | viability, T/C [9] [%] | viability, T/C [10] [%] | viability, T/C [11] [%] | viability, T/C [12] [%] | viability, T/C [13] [%] | viability, T/C [14] [%] | viability, T/C [15] [%] | viability, T/C [16] [%] | further results
CC1OCC2(CCN(c3cnc(Sc4ccnc(N)c4Cl)c(N)n3)CC2)C1N (stereo not given) + C=CC(=O)N1CCN(c2nc(=O)n(-c3c(C)ccnc3C(C)C)c3nc(-c4c(O)cccc4F)c(F)cc23)C(C)C1 | < 0.0316 | < 0.0316 | < 0.0316 | < 0.0316 | 41.2 | 31.8 | 25 | 15.9 | 11.1 | 39.1 | 29.8 | 22.5 | 19 | 10.7 | 46.9 | 30.2 | 24.1 | 17.6 | 15 | 45.2 | IC50 (second compound 10 µM): < 0.0316 µM; viability, T/C (second compound 0.1 µM, first compound 10 µM): 12%; viability, T/C (second compound 0.316 µM, first compound 10 µM): 11.6%; viability, T/C (second compound 1 µM, first compound 10 µM): 12.1%; viability, T/C [17]: 38.7%; viability, T/C [18]: 26.9%; viability, T/C [19]: 17.2%; viability, T/C [20]: 15.8%; viability, T/C (second compound 3.16 µM, first compound 10 µM): 13%; viability, T/C (second compound 10 µM, first compound 0.0316 µM): 33%; viability, T/C (second compound 10 µM, first compound 0.1 µM): 29.1%; viability, T/C (second compound 10 µM, first compound 0.316 µM): 19.4%; viability, T/C (second compound 10 µM, first compound 1 µM): 16.4%; viability, T/C (second compound 10 µM, first compound 3.16 µM): 11.5%; viability, T/C (second compound 10 µM, first compound 10 µM): 12.1%
CC(=O)OC12COC1CC(O)C1(C)C(=O)C(O)C3=C(C)C(OC(=O)C(O)C(NC(=O)OC(C)(C)C)c4ccccc4)CC(O)(C(OC(=O)c4ccccc4)C21)C3(C)C (stereo not given) + C=CC(=O)N1CCN(c2nc(OCC3CCCN3C)nc3c2CCN(c2cccc4cccc(C)c24)C3)CC1CC#N | < 0.01 | < 0.01 | < 0.01 | < 0.01 | 22.9 | 18.7 | 20.7 | 20.7 | 21.2 | 21.1 | 19.7 | 17.9 | 30.9 | 21.3 | 17.4 | 18.2 | 16 | 17.1 | 17.2 | 31.1 | IC50 (second compound 0.0316 µM): < 0.01 µM; viability, T/C (second compound 0.0316 µM, first compound 0.01 µM): 25.4%; viability, T/C (second compound 0.0316 µM, first compound 0.0316 µM): 23.9%; viability, T/C (second compound 0.0316 µM, first compound 0.1 µM): 22.6%; viability, T/C (second compound 0.0316 µM, first compound 0.316 µM): 23.2%; viability, T/C (second compound 0.0316 µM, first compound 1 µM): 22.9%; viability, T/C (second compound 0.0316 µM, first compound 3.16 µM): 23.6%; viability, T/C (second compound 0.1 µM, first compound 0.01 µM): 21.5%; viability, T/C (second compound 0.316 µM, first compound 0.01 µM): 20.1%; viability, T/C (second compound 1 µM, first compound 0.01 µM): 19.4%; viability, T/C (second compound 3.16 µM, first compound 0.01 µM): 31.7%; viability, T/C [17]: 26.5%; viability, T/C [18]: 24.8%; viability, T/C [19]: 27.7%; viability, T/C [20]: 31.2%
